Values joined by “and” are separate entries in the source; they are usually repeats but may differ in a detail not shown here. Equal entries are not always repeated.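 In this assay, cells in 96-well plates receive the compound at five concentrations for 48 hours. Endpoints are linearly interpolated between the surrounding concentrations. Here, GI50 denotes the concentration required for 50% inhibition of growth. TGI: total growth inhibition.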
Tests used:
Experiment in all cases: NCI-60 cell line screen, 48 h
786-0 renal = system: 786-0 renal
U251 CNS = system: U251 CNS
SK-OV-3 ovarian = system: SK-OV-3 ovarian
HT29 colon = system: HT29 colon
MDA-MB-435 = system: MDA-MB-435
HL-60(TB) leukemia = system: HL-60(TB) leukemia
SW-620 colon = system: SW-620 colon
HOP-62 NSCLC = system: HOP-62 NSCLC
PC-3 prostate = system: PC-3 prostate
RXF 393 renal = system: RXF 393 renal

`Cc1ncc([N+](=O)[O-])n1CCNC(=O)Cn1ccnc1[N+](=O)[O-]` showed a TGI (786-0 renal) of over 100 µM, a TGI (U251 CNS) of over 100 µM and a TGI (SK-OV-3 ovarian) of over 100 µM. The TGI (HT29 colon) was over 100 µM, the TGI (MDA-MB-435) was over 100 µM and the TGI (HL-60(TB) leukemia) was over 100 µM. For the same compound, the TGI (SW-620 colon) was over 100 µM, the TGI (HOP-62 NSCLC) was over 100 µM and the TGI (PC-3 prostate) was over 100 µM.

With `C/C(=C1/N=C(c2ccccc2)OC1=O)c1ccccc1` the TGI (786-0 renal) was over 100 µM, the TGI (U251 CNS) was over 100 µM and the TGI (SK-OV-3 ovarian) was over 100 µM. The TGI (HT29 colon) was over 100 µM, the TGI (MDA-MB-435) was over 100 µM and the TGI (HL-60(TB) leukemia) was over 100 µM. The TGI (SW-620 colon) was over 100 µM, the TGI (HOP-62 NSCLC) was over 100 µM and the TGI (PC-3 prostate) was over 100 µM.

Compound `C=C(CN(C)Cc1ccccc1)c1ccc(C(=O)Nc2ccccc2N)cc1` has a GI50 (786-0 renal) of 5.21 µM, a TGI (786-0 renal) of 27.3 µM and a GI50 (U251 CNS) of 3.34 µM. It also gave a TGI (U251 CNS) of 13.8 µM, a GI50 (SK-OV-3 ovarian) of 5.28 µM and a TGI (SK-OV-3 ovarian) of 14.4 µM. For the same compound, the GI50 (MDA-MB-435) was 1.42 µM, the TGI (MDA-MB-435) was 5.7 µM and the GI50 (SW-620 colon) was 6.08 µM. For the same compound, the TGI (SW-620 colon) was over 50 µM, the GI50 (HOP-62 NSCLC) was 3.61 µM and the TGI (HOP-62 NSCLC) was over 50 µM. The GI50 (PC-3 prostate) was 4.95 µM and the TGI (PC-3 prostate) was over 50 µM.

For `CNC1=CC(=O)C2=C(C1=O)C1C3=C(C(=O)C(Br)=C(OC)C3=O)C2c2ccccc21` (stereo unspecified), the GI50 (786-0 renal) was 1.38 µM, the TGI (786-0 renal) was 3.5 µM and the GI50 (U251 CNS) was 1.41 µM. The TGI (U251 CNS) was 4.26 µM, the GI50 (SK-OV-3 ovarian) was 2.15 µM and the TGI (SK-OV-3 ovarian) was over 50 µM. It also gave a GI50 (HT29 colon) of 2.71 µM, a TGI (HT29 colon) of over 50 µM and a GI50 (MDA-MB-435) of 6.92 µM. For the same compound, the TGI (MDA-MB-435) was 17.1 µM, the GI50 (RXF 393 renal) was 1.49 µM and the TGI (RXF 393 renal) was 2.99 µM. It also gave a GI50 (SW-620 colon) of 2.88 µM, a TGI (SW-620 colon) of over 50 µM and a GI50 (HOP-62 NSCLC) of 1.55 µM. The TGI (HOP-62 NSCLC) was 4.61 µM, the GI50 (PC-3 prostate) was 1.08 µM and the TGI (PC-3 prostate) was 2.75 µM.

For `COc1cc2c(c(OC)c1OC)C(=O)c1c-2n(CCCN=[N+]=[N-])c(=O)c2cc([N+](=O)[O-])ccc12`, the GI50 (786-0 renal) was 41 µM, the TGI (786-0 renal) was over 100 µM and the GI50 (U251 CNS) was 58 µM. It also gave a TGI (U251 CNS) of over 100 µM, a GI50 (SK-OV-3 ovarian) of 62.7 µM and a TGI (SK-OV-3 ovarian) of over 100 µM. The GI50 (HT29 colon) was over 100 µM, the TGI (HT29 colon) was over 100 µM and the GI50 (MDA-MB-435) was over 100 µM. It also gave a TGI (MDA-MB-435) of over 100 µM, a GI50 (RXF 393 renal) of 19.1 µM and a TGI (RXF 393 renal) of 66.1 µM. For the same compound, the GI50 (HL-60(TB) leukemia) was over 100 µM, the TGI (HL-60(TB) leukemia) was over 100 µM and the GI50 (SW-620 colon) was over 100 µM. It also gave a TGI (SW-620 colon) of over 100 µM, a GI50 (HOP-62 NSCLC) of 30.7 µM and a TGI (HOP-62 NSCLC) of over 100 µM.

Work on `NC(=NCCO)c1ccc(N2CCCN(c3ccc(C(N)=NCCO)cc3)CC2)cc1` yielded a GI50 (786-0 renal) of over 100 µM, a TGI (786-0 renal) of over 100 µM and a GI50 (U251 CNS) of over 100 µM. The TGI (U251 CNS) was over 100 µM, the GI50 (HT29 colon) was over 100 µM and the TGI (HT29 colon) was over 100 µM. The GI50 (MDA-MB-435) was over 100 µM, the TGI (MDA-MB-435) was over 100 µM and the GI50 (HOP-62 NSCLC) was 91.7 µM. For the same compound, the TGI (HOP-62 NSCLC) was over 100 µM.

Compound `Oc1c(Cl)cc(CN(Cc2cc(Cl)c(O)c(Cl)c2)C2CCCCC2)cc1Cl` has a TGI (786-0 renal) of over 100 µM, a TGI (U251 CNS) of over 100 µM and a TGI (SK-OV-3 ovarian) of over 100 µM. It also gave a TGI (HT29 colon) of over 100 µM, a TGI (MDA-MB-435) of over 100 µM and a TGI (RXF 393 renal) of over 100 µM. It also gave a TGI (SW-620 colon) of over 100 µM, a TGI (HOP-62 NSCLC) of over 100 µM and a TGI (PC-3 prostate) of over 100 µM.

For `Cc1cc(Cl)ccc1N1C(=O)C(=O)C(c2nc3ccccc3o2)C(=O)C1=O`, the TGI (786-0 renal) was over 100 µM, the TGI (U251 CNS) was over 100 µM and the TGI (SK-OV-3 ovarian) was over 100 µM. It also gave a TGI (HT29 colon) of over 100 µM, a TGI (RXF 393 renal) of over 100 µM and a TGI (HL-60(TB) leukemia) of over 100 µM. It also gave a TGI (SW-620 colon) of over 100 µM and a TGI (HOP-62 NSCLC) of over 100 µM.

With `O=C1[C@@H]2C(c3ccncc3)=NO[C@@H]2C(=O)N1c1ccc(Cc2ccc(N3C(=O)[C@H]4C(c5ccncc5)=NO[C@H]4C3=O)cc2)cc1` the TGI (786-0 renal) was over 100 µM, the TGI (U251 CNS) was over 100 µM and the TGI (SK-OV-3 ovarian) was over 100 µM. It also gave a TGI (HT29 colon) of over 100 µM, a TGI (RXF 393 renal) of over 100 µM and a TGI (HL-60(TB) leukemia) of over 100 µM. For the same compound, the TGI (SW-620 colon) was over 100 µM and the TGI (HOP-62 NSCLC) was over 100 µM.

`Cc1ccc(N(/C=C/C(=O)C(F)(F)F)CC(=O)c2ccc(Cl)c(Cl)c2)cc1` showed a GI50 (786-0 renal) of 13.5 µM, a TGI (786-0 renal) of 26.3 µM and a GI50 (U251 CNS) of 10.7 µM. For the same compound, the TGI (U251 CNS) was 22.6 µM, the GI50 (HT29 colon) was 4.73 µM and the TGI (HT29 colon) was 17.9 µM. For the same compound, the GI50 (MDA-MB-435) was 1.92 µM, the TGI (MDA-MB-435) was 3.82 µM and the GI50 (RXF 393 renal) was 3.82 µM. It also gave a TGI (RXF 393 renal) of 19 µM, a GI50 (SW-620 colon) of 2.88 µM and a TGI (SW-620 colon) of 15.2 µM. The GI50 (HOP-62 NSCLC) was 12.3 µM, the TGI (HOP-62 NSCLC) was 24.8 µM and the GI50 (PC-3 prostate) was 7.06 µM. It also gave a TGI (PC-3 prostate) of 20 µM.

`CCOC(=O)C(O)Cc1cnc2ccccc2n1` (stereo unspecified) was tested, and the TGI (786-0 renal) was over 100 µM, the TGI (U251 CNS) was over 100 µM and the TGI (SK-OV-3 ovarian) was over 100 µM. The TGI (HT29 colon) was over 100 µM, the TGI (MDA-MB-435) was over 100 µM and the TGI (RXF 393 renal) was over 100 µM. It also gave a TGI (SW-620 colon) of over 100 µM, a TGI (HOP-62 NSCLC) of over 100 µM and a TGI (PC-3 prostate) of over 100 µM.

For `CC(=O)OCC1OC(n2c(=S)n(-c3ccccc3)c(=O)c3cc(Br)ccc32)C(OC(C)=O)C(OC(C)=O)C1OC(C)=O` (stereo unspecified), the TGI (786-0 renal) was over 100 µM, the TGI (U251 CNS) was over 100 µM and the TGI (SK-OV-3 ovarian) was over 100 µM. The TGI (HT29 colon) was over 100 µM, the GI50 (RXF 393 renal) was 33.7 µM and > 100 µM and the TGI (RXF 393 renal) was over 100 µM. It also gave a TGI (HL-60(TB) leukemia) of over 100 µM, a TGI (SW-620 colon) of over 100 µM and a TGI (HOP-62 NSCLC) of over 100 µM.

For `COC(=O)c1ccc(NC(N)=NCC(C)(C)COc2ccc(C(F)(F)F)cc2)nc1`, the GI50 (786-0 renal) was 1.46 µM, the TGI (786-0 renal) was 2.83 µM and the GI50 (U251 CNS) was 1.61 µM. The TGI (U251 CNS) was 3.05 µM, the GI50 (SK-OV-3 ovarian) was 1.8 µM and the TGI (SK-OV-3 ovarian) was 3.45 µM. The GI50 (HT29 colon) was 1.66 µM, the TGI (HT29 colon) was 3.21 µM and the GI50 (RXF 393 renal) was 1.49 µM. For the same compound, the TGI (RXF 393 renal) was 2.96 µM, the GI50 (HL-60(TB) leukemia) was 1.79 µM and the TGI (HL-60(TB) leukemia) was 3.56 µM. It also gave a GI50 (HOP-62 NSCLC) of 1.67 µM, a TGI (HOP-62 NSCLC) of 3.2 µM and a GI50 (PC-3 prostate) of 1.38 µM. It also gave a TGI (PC-3 prostate) of 2.75 µM.

`O=C(Nc1ccccc1[N+](=O)[O-])C(=O)C(C(=O)c1ccccc1-c1ccccc1)C1OC(=O)c2ccccc21` (stereo unspecified) showed a TGI (786-0 renal) of 28.6 µM, a TGI (U251 CNS) of 24.2 µM and a TGI (SK-OV-3 ovarian) of over 100 µM. For the same compound, the TGI (HT29 colon) was 59.2 µM, the TGI (RXF 393 renal) was 25.9 µM and the TGI (HL-60(TB) leukemia) was 47.6 µM. For the same compound, the TGI (SW-620 colon) was 36.7 µM and the TGI (HOP-62 NSCLC) was 36 µM.
